The results in this text go back to patent US20250388550A1, “SALTS OF AN ANTIOXIDANT AND CRYSTALLINE FORMS THEREOF” (Mironova Labs, Inc., priority 2022, published 2025).

Usually solubility stands for the concentration that dissolves in the medium under given conditions.

A short description of series [1]: Hygroscopicity inferred from TGA weight loss. In kind it is physicochemical. To be noted: weight loss likely volatilization of moisture. As to the method: Thermogravimetric (TG) analyses were performed using a Mettler-Toledo TGA/DSC3+ analyzer. Temperature and enthalpy adjustments were performed using indium, tin, and zinc, and then verified with indium. The balance was verified with calcium oxalate. The sample was placed in an aluminum pan. The pan was hermetically sealed, the lid pierced, and the pan was then inserted into the TG furnace. A weighed aluminum pan configured as the sample pan was placed on the reference platform. The furnace was heated under nitrogen. Samples were analyzed from 25° C. to 350° C. at 10° C./min. Thermogravimetric analyses typically experience a period of equilibration at the start of each analysis, indicated by red parentheses on the thermograms. The starting temperature for relevant weight loss calculations is selected at a point beyond this region (typically above 35° C.) for accuracy. DSC analysis on this instrument is less sensitive than on the DSC3+ differential scanning calorimeter. Therefore, in certain embodiments, samples with sufficient solids were analyzed by both instruments and the TGA thermogram from Mettler-Toledo TGA/DSC3+ analyzer is reported below.
The final endotherm with an onset of 234° C. is likely from concomitant melt and decomposition.
Thermal decomposition (FIG. 20), which caused the material to expand out of the pan, was evident above this temperature.

The text on series [2]:
It cannot be predicted in advance whether a compound exists in one or more solid forms, or whether the properties of the solid form are advantageous for manufacturing and pharmaceutical formulation.

A further series is described as follows: physchem. The format is physicochemical. To be noted: 60 °C, organic solvent or mixture. As to the method:
The approximate solubility of the L-Ergothioneine Form A/B mixture in various solvents was determined (Table 2).

Series [3] in a line: Physical stability assessment at controlled relative humidity, form by XRPD. To be noted: RT, 22 days. In kind it is physicochemical. The source says: Consistent with the DVS result, the critical water activity between the anhydrate and the dihydrate was tentatively determined to fall between 0.76 and 0.85 aw, above which hydration to Form B Dihydrate will occur. This is also consistent with the physical stability assessment at 33, 75, and 95% RH for 22 days; Form A Anhydrate remained Form A below the critical water activity, while hydration to Form B Dihydrate occurred above (Table 16).
(§1) The effect of relative humidity (RH) and water activity (aw) on the hydration state of L-Ergothioneine was investigated through both static exposure to different relative humidity (Table 17 and Table 18) and competitive water activity trituration experiments at room temperature (Table 20). The resulting solids were characterized by XRPD. These experiments were used to establish the relative humidity ranges for form stability of the thermodynamically stable anhydrate Form A and Form B Dihydrate. The critical water activity between the anhydrate and the dihydrate falls between 0.76 and 0.85 aw. This range is consistent with the DVS isotherms for both Forms A and C Anhydrate.

A short description of series [4]: Slurry interconversion experiments of Forms A and C. To be noted: for Relative thermodynamic stability of the anhydrate forms: Form A versus Form C, at the temperatures evaluated; for Interconversion result (form): EtOH, 75° C. In kind it is physicochemical. The protocol: The choice of solvent affects the kinetics of polymorph conversion and not the thermodynamic relationship between polymorphic forms (Gu, CH., Young, V. Jr., Grant, DJ. J. Pharm. Sci 2001; 90 (11): 1878-1890).
Slurry interconversion experiments in ethanol (at 75° C.) and methanol (at room temperature) were still attempted to confirm the thermodynamic relationship between Forms A and C (Table 18).

Series [5] is described as follows: DVS moisture sorption/desorption isotherm. In kind it is physicochemical. As to the method: Moisture sorption/desorption data were collected on a VTI SGA-100 Vapor Sorption Analyzer. Samples were not dried prior to analysis. Sorption and desorption data were collected over a range from 5% to 95% RH at 10% RH increments under a dry air purge. The equilibrium criterion used for analysis was less than 0.0100% weight change in 5 minutes with a maximum equilibration time of 3 hours with a 2-minute data logging interval. Data were not corrected for the initial moisture content of the samples.

The nature of series [6]: Trituration of Form C in aqueous methanol below the critical water activity. In kind it is physicochemical. Conditions: 10:90 water/MeOH, aw 0.29, RT, 5 d. The protocol: Although the dihydrate of L-Ergothioneine can form in the presence of water, aqueous methanol mixtures were utilized to enhance solubility. To avoid the dihydrate, the aqueous mixtures were prepared below the critical water activity of its formation. Form C was triturated in the aqueous mixtures and monitored for conversion to Form A by XRPD after 5 days (Table 19).

Series [7] in a line: Observation of isolated solid on removal from nitrogen stream. In kind it is physicochemical. To be noted: upon removal from the nitrogen stream. The protocol: L-Ergothioneine calcium chloride Material A was obtained by heating a slurry of 173.9 mg of L-Ergothioneine Form A/B in 1 mL of water to 65° C. A faint turbid solution was afforded with the addition of 110.5 mg of calcium chloride to the slurry. The sample was refrigerated for 3 days and became clear. The clear solution was evaporated to dryness under nitrogen.

The nature of series [8]: Competitive water activity trituration experiments at room temperature. In kind it is physicochemical.
Source text: Water activity is related to relative humidity in that RH %=aw×100. Therefore, it is possible to directly relate the stability of an anhydrous/hydrate system in slurry experiments to solid state stability.
as §1

Regarding `C[N+](C)(C)C(Cc1cnc(S)[nH]1)C(=O)[O-]` [L-Ergothioneine phosphoric acid], the “Hygroscopicity suggested by TGA weight loss” value in [1] is reported as “hygroscopic”. In addition, the “Solubility in polar protic solvents” value in series [2] was “low solubility”.

As to `C[N+](C)(C)C(Cc1cnc(S)[nH]1)C(=O)[O-]` [L-Ergothioneine mixture, L-Ergothioneine], the solubility in “physchem” was less than 2000 µg/mL.

As to `C[N+](C)(C)C(Cc1cnc(S)[nH]1)C(=O)[O-]` [L-Ergothioneine Form C Anhydrate, L-Ergothioneine], the figures for the “Physical stability, resulting form” value in series [3] (75% RH) and in [3] (95% RH) were “Form C” and “Form B”, respectively. Moreover, the “Relative thermodynamic stability of the anhydrate forms” value in series [4] (listed as Form C Anhydrate) is recorded as “thermodynamically metastable relative to Form A”. Moreover, the “Weight loss upon equilibration” value in [5] (at 5% RH) was 0.3 wt %. Also, the Water gain equivalent result in [5] (at 95% RH) is listed as “more than 1.5 mol/mol”. Moreover, the “Weight gain during sorption cycle” value is on record as “more than 10.9 wt %” in series [5] (at 95% RH, equilibrium not achieved) and “approximately 0.9 wt %” in series [5] (up through 85% RH). Besides, the “Hygroscopicity (DVS)” value in [5] (from 5 to 85% RH, listed as Form C) is “limited hygroscopicity”. For the same compound, the “Complete desorption, equivalent loss of water” value in series [5] (once reaching 5% RH) came out at 1 mol/mol. In series [5] (post-DVS), the “Recovered material after DVS by XRPD” value was “mixture of Form C Anhydrate, Form B Dihydrate, and another form”. In addition, in series [5] (until reaching 75% RH), the “Weight loss on desorption cycle” value is recorded as 5.5 wt %. Also, in [6], the “Trituration result (form by XRPD)” value was “A + C (minor)”.

`C[N+](C)(C)C(Cc1cnc(S)[nH]1)C(=O)[O-]` [L-Ergothioneine Form B Dihydrate, L-Ergothioneine]: the “Physical stability, resulting form” value in series [3] (33% RH) is “partially dehydrate to a small quantity of both Forms A and C Anhydrates”; in series [3] (75% RH, listed as Form B Dihydrate) it was “sustained”; in series [3] (95% RH, listed as Form B Dihydrate), “sustained”.

`C[N+](C)(C)C(Cc1cnc(S)[nH]1)C(=O)[O-]` [L-Ergothioneine Form A Anhydrate, L-Ergothioneine, reference compound]: the “Relative thermodynamic stability of the anhydrate forms” value in [4] (listed as Form A) is reported as “more thermodynamically stable form”. The “Hygroscopicity (DVS)” value in series [5] (above 85% RH) is “significant hygroscopicity”; in [5] (from 5 to 85% RH, listed as Form A) it was “low hygroscopicity”.

L-Ergothioneine calcium chloride: the Deliquescence entry in series [7] is recorded as “appeared to deliquesce”.

Take `C[N+](C)(C)C(Cc1cnc(S)[nH]1)C(=O)[O-]` [Forms A and C, L-Ergothioneine]: the “Water activity experiment result (form)” value in series [8] (15:85 water/MeOH, aw 0.39, RT, 8 d) is “B + A + C + anotherform”; in series [8] (20:80 water/MeOH, aw 0.47, RT, 8 d) it was “B + A + C”; in series [8] (20:80 water/MeOH, aw 0.47, RT, 14 d), “A + B”; in [8] (70:30 water/MeOH, aw 0.86, RT, 13 d), “B (PO)”; in series [8] (solvent, aw and method cells empty, lines below 50:50 water/MeOH, aw 0.76), “A + B + anotherform”. Moreover, the results for the “Interconversion result (form)” value in [4] (14 days) and in [4] (28 days) were “A + C” and “A + C (minor)”, respectively.

In the case of `C[N+](C)(C)C(Cc1c[nH]c(=S)[nH]1)C(=O)O.O=S(=O)([O-])O` [L-Ergothioneine Sulfate Form A, L-Ergothioneine sulfate], the “Hygroscopicity suggested by TGA weight loss” value in [1] is “hygroscopic”.
